Measured values as given in patent publication US6635771B2, “N-benzhydryl indole compounds” (Wyeth, priority 2001, dated 2003).

These molecules were tested against T1, cPLA2 (Homo sapiens, UniProt P47712) (assay: Coumarine Assay). Conditions: 60 μM 7-hydroxycoumarinyl 6-heptenoate substrate, 4 μg cPLA2, pH 7.5, fluorescence ex 360 nm / em 460 nm; read-out: Coumarin IC50.
T1 sequence (P47712 1-749): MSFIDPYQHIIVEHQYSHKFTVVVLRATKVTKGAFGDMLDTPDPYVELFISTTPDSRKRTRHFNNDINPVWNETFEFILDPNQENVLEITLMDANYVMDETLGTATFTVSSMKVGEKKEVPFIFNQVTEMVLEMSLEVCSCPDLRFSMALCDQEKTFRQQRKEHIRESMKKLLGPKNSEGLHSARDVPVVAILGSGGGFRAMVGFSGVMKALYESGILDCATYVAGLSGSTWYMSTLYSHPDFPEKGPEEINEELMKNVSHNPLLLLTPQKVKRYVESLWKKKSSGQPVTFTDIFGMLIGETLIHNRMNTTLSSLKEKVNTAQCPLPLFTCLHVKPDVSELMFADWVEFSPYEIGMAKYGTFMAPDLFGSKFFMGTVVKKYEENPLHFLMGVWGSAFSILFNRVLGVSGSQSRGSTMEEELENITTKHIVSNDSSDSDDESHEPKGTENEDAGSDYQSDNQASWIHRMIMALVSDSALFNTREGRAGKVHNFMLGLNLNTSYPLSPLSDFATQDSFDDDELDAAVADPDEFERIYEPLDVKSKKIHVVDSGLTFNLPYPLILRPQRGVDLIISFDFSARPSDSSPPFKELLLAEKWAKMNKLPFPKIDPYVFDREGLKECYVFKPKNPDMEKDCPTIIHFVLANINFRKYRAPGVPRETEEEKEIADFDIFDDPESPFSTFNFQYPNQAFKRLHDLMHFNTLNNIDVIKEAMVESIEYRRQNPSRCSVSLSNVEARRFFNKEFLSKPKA
Format: biochemical

Question: `CC1CCCC(C)N1CCS(=O)(=O)NCCc1c(CCCc2ccc(C(=O)O)cc2)c2cc(Cl)ccc2n1C(c1ccccc1)c1ccccc1` (stereo not drawn) [Example 101, 4-[3-(1-Benzhydryl-5-chloro-2-{2-[2-(2,6-dimethyl-piperidin-1-yl)-ethanesulfonylamino]-ethyl}-1H-indol-3-yl)-propyl]-benzoic acid] was tested. Which IC50 did it give?
Answer: Its IC50 is 100 nM.

Question: With `Cc1cc(C)n(CCS(=O)(=O)NCCc2c(CCCc3ccc(C(=O)O)cc3)c3cc(Cl)ccc3n2C(c2ccccc2)c2ccccc2)n1` [Example 102] as the molecule, how does the IC50 read?
Answer: Its IC50 is 190 nM.

Question: How did the IC50 turn out when `O=C(O)c1ccc(OCCc2c(CCNS(=O)(=O)CCn3ncnn3)n(C(c3ccccc3)c3ccccc3)c3ccc(Cl)cc23)cc1` [Example 103, 4-(2-{1-benzhydryl-5-chloro-2-[2-(2-tetrazol-2-yl-ethanesulfonylamino)-ethyl]-1H-indol-3-yl}ethoxy)benzoic acid] was run?
Answer: Its IC50 is 1100 nM.

Question: `O=C(O)c1ccc(OCCc2c(CCNS(=O)(=O)CCn3cnnn3)n(C(c3ccccc3)c3ccccc3)c3ccc(Cl)cc23)cc1` [Example 104, 4-(2-{1-benzhydryl-5-chloro-2-[2-(2-tetrazol-1-yl-ethanesulfonylamino)-ethyl]-1H-indol-3-yl}ethoxy)benzoic acid] was tested. Which IC50 did it give?
Answer: Its IC50 is 1100 nM.

Question: Which IC50 does the source give for `O=C(O)c1ccc(OCCc2c(CCNS(=O)(=O)Cc3ccc(Cl)c(Cl)c3)n(C(c3ccccc3)c3ccccc3)c3cc(Cl)ccc23)cc1` [Example 106, 4-(2-{1 -Benzhydryl-6-chloro-2-[2-(3,4-dichloro-phenylmethanesulfonylamino)-ethyl]-1H-indol-3-yl}-ethoxy)-benzoic acid] here?
Answer: Its IC50 is 220 nM.

Question: How did the IC50 turn out when `O=C(O)c1ccc(OCCc2c(CCNS(=O)(=O)Cc3cc(Cl)cc(Cl)c3)n(C(c3ccccc3)c3ccccc3)c3cc(Cl)ccc23)cc1` [Example 107, 4-[2-{1-Benzhydryl-6-chloro-2-[2-(3,5-dichloro-phenylmethanesulfonylamino)-ethyl]-1H-indol-3-yl}-ethoxy)-benzoic acid] was run?
Answer: The IC50 was 330 nM.

Question: `N#Cc1ccccc1CS(=O)(=O)NCCc1c(CCOc2ccc(C(=O)O)cc2)c2cc(Cl)ccc2n1C(c1ccccc1)c1ccccc1` [Example 108, 4-{2-[1-Benzhydryl-5-chloro-2-(2-{[(2-cyanobenzyl)sulfonyl]amino}ethyl)-1H-indol-3-yl]ethoxy}benzoic acid] was tested. Which IC50 did it give?
Answer: The IC50 was 150 nM.

Question: For `O=C(O)c1ccc(OCCc2c(CCNS(=O)(=O)CC3CCCCO3)n(C(c3ccccc3)c3ccccc3)c3ccc(Cl)cc23)cc1` (stereo not drawn) [Example 109, 4-{2-[1-Benzhydryl-5-chloro-2-(2-{[(tetrahydro-2H-pyran-2-ylmethyl)sulfonyl]amino}ethyl)-1H-indol-3-yl]ethoxy}benzoic acid], which IC50 is on record?
Answer: The IC50 was 400 nM.

Question: Which IC50 does the source give for `O=C(O)c1ccc(OCCc2c(CCNS(=O)(=O)Cc3nc4ccccc4o3)n(C(c3ccccc3)c3ccccc3)c3ccc(Cl)cc23)cc1` [Example 110, 4-{2-[1-Benzhydryl-2-(2-{[(1,3-benzoxazol-2-ylmethyl)sulfonyl]amino}ethyl)-5-chloro-1H-indol-3-yl]ethoxy}benzoic acid] here?
Answer: Its IC50 is 500 nM.

Question: How did the IC50 turn out when `O=C(O)c1ccc(OCCc2c(CCNS(=O)(=O)Cc3ccsc3)n(C(c3ccccc3)c3ccccc3)c3ccc(Cl)cc23)cc1` [Example 112, 4-{2-[1-Benzhydryl-5-chloro-2-(2-{[(3-thienylmethyl)sulfonyl]amino}ethyl)-1H-indol-3-yl]ethoxy}benzoic acid] was run?
Answer: Its IC50 is 1200 nM.

Question: Which IC50 does the source give for `CC1CCCN1CCS(=O)(=O)NCCc1c(CCOc2ccc(C(=O)O)cc2)c2cc(Cl)ccc2n1C(c1ccccc1)c1ccccc1` (stereo not drawn) [Example 113, 4-[2-(1-Benzhydryl-5-chloro-2-{2-[2-(2-methyl-pyrrolidin-1-yl)-ethanesulfonylamino]-ethyl}-1H-indol-3-yl)-ethoxy]-benzoic acid] here?
Answer: The IC50 was 1300 nM.

Question: How did the IC50 turn out when `CC1CCCCN1CCS(=O)(=O)NCCc1c(CCOc2ccc(C(=O)O)cc2)c2cc(Cl)ccc2n1C(c1ccccc1)c1ccccc1` (stereo not drawn) [Example 114, 4-[2-(1-Benzhydryl-5-chloro-2-{2-[2-(2-methyl-piperidin-1-yl)-ethanesulfonylamino]-ethyl}-1H-indol-3-yl)-ethoxy]-benzoic acid] was run?
Answer: The IC50 was 1100 nM.

Question: With `CC1CCC(C)N1CCS(=O)(=O)NCCc1c(CCOc2ccc(C(=O)O)cc2)c2cc(Cl)ccc2n1C(c1ccccc1)c1ccccc1` (stereo not drawn) [Example 115, 4-[2-(1-Benzhydryl-5-chloro-2-{2-[2-(2,5-dimethyl-pyrrolidin-1-yl)-ethanesulfonylamino]-ethyl}-1H-indol-3-yl)-ethoxy]-benzoic acid] as the molecule, how does the IC50 read?
Answer: Its IC50 is 900 nM.

Question: With `O=C(O)c1ccc(OCCc2c(CCNS(=O)(=O)CCN3CCCCC3)n(C(c3ccccc3)c3ccccc3)c3ccc(Cl)cc23)cc1` [Example 117] as the molecule, how does the IC50 read?
Answer: The IC50 was 1600 nM.

Question: For `Cc1ccccc1SCS(=O)(=O)NCCc1c(CCOc2ccc(C(=O)O)cc2)c2cc(Cl)ccc2n1C(c1ccccc1)c1ccccc1` [Example 118, 4-{2-[1-benzhydryl-5-chloro-2-(2-o-tolylsulfanylmethanesulfonylamino-ethyl)-1H-indol-3-yl]-ethoxy}-benzoic acid], which IC50 is on record?
Answer: Its IC50 is 400 nM.

Question: How did the IC50 turn out when `O=C(O)c1ccc(OCCc2c(CCNS(=O)(=O)CSc3ccccc3Cl)n(C(c3ccccc3)c3ccccc3)c3ccc(Cl)cc23)cc1` [Example 119] was run?
Answer: Its IC50 is 400 nM.

Question: `O=C(O)c1ccc(OCCc2c(CCNS(=O)(=O)CSc3c(Cl)cccc3Cl)n(C(c3ccccc3)c3ccccc3)c3ccc(Cl)cc23)cc1` [Example 120, 4-(2-{1-benzhydryl-5-chloro-2-[2-(2,6-dichloro-phenylsulfanylmethanesulfonylamino)-ethyl]-1H-indol-3-yl}-ethoxy)-benzoic acid] was tested. Which IC50 did it give?
Answer: The IC50 was 400 nM.

Question: How did the IC50 turn out when `COc1ccc(OC)c(SCS(=O)(=O)NCCc2c(CCOc3ccc(C(=O)O)cc3)c3cc(Cl)ccc3n2C(c2ccccc2)c2ccccc2)c1` [Example 121, 4-(2-{1-benzhydryl-5-chloro-2-[2-(2,5-dimethoxy-phenylsulfanylmethanesulfonylamino)-ethyl]-1H-indol-3-yl}-ethoxy)-benzoic acid] was run?
Answer: Its IC50 is 460 nM.

Question: For `O=C(O)c1ccc(OCCc2c(CCNS(=O)(=O)CCN3CCC(O)C3)n(C(c3ccccc3)c3ccccc3)c3ccc(Cl)cc23)cc1` (stereo not drawn) [Example 122, 4-[2-(1-benzhydryl-5-chloro-2-{2-[2-(3-hydroxy-pyrrolidine-1-yl)-ethanesulfonylamino]-ethyl}-1H-indol-3-yl)-ethoxy]-benzoic acid], which IC50 is on record?
Answer: Its IC50 is 2500 nM.

Question: With `O=C(O)c1ccc(OCCc2c(CCNS(=O)(=O)CCN3CCC(O)CC3)n(C(c3ccccc3)c3ccccc3)c3ccc(Cl)cc23)cc1` [Example 123, 4-[2-(1-Benzhydryl-5-chloro-2-{2-[2-(4-hydroxy-piperidin-1-yl)-ethanesulfonylamino]-ethyl}-1H-indol-3-yl)-ethoxy]-benzoic acid] as the molecule, how does the IC50 read?
Answer: The IC50 was 1700 nM.

Question: `CN(C)CC1CCCCN1CCS(=O)(=O)NCCc1c(CCOc2ccc(C(=O)O)cc2)c2cc(Cl)ccc2n1C(c1ccccc1)c1ccccc1` (stereo not drawn) [Example 124, 4-[2-(1-Benzhydryl-5-chloro-2-{2-[2-(2-dimethylaminomethyl-piperidin-1-yl)-ethanesulfonylamino]-ethyl}-1H-indol-3-yl)-ethoxy]-benzoic acid] was tested. Which IC50 did it give?
Answer: Its IC50 is 800 nM.

Question: How did the IC50 turn out when `O=C(O)c1ccc(CCCc2c(CCNS(=O)(=O)Cc3c(F)cccc3F)n(C(c3ccccc3)c3ccccc3)c3ccc(Cl)cc23)cc1` [Example 126, 4-{3-[1-benzhydryl-5-chloro-2-{2-([(2,6-difluorobenzyl)sulfonyl]amino}ethyl)-1H-indol-3-yl]propyl}benzoic acid] was run?
Answer: Its IC50 is 200 nM.

Question: How did the IC50 turn out when `O=C(O)c1ccc(CCCc2c(CCNS(=O)(=O)Cc3ccc(Cl)c(Cl)c3)n(C(c3ccccc3)c3ccccc3)c3ccccc23)cc1` [Example 127, 4-{3-[1-benzhydryl-2-(2-{[(3,4-dichlorobenzyl)sulfonyl]amino}ethyl)-1H-indol-3-yl]propyl}benzoic acid] was run?
Answer: The IC50 was 200 nM.

Question: For `O=C(O)c1ccc(CCCc2c(CCNS(=O)(=O)Cc3ccccc3)n(C(c3ccccc3)c3ccccc3)c3ccccc23)cc1` [Example 128, 4-[3-(1-benzhydryl-2-{2-[(benzylsulfonyl)amino]ethyl}-1H-indol-3-yl)propyl]benzoic acid], which IC50 is on record?
Answer: Its IC50 is 320 nM.

Question: With `O=C(O)CCc1ccc(S(=O)(=O)CCc2c(CCNS(=O)(=O)Cc3c(F)cccc3F)n(C(c3ccccc3)c3ccccc3)c3ccc(Cl)cc23)cc1` [Example 131, 3-[4-({2-[1-benzhydryl-5-chloro-2-(2-{[(2,6-difluorobenzyl)sulfonyl]amino}ethyl)-1H-indol-3-yl]ethyl}sulfonyl)phenyl]propanoic acid] as the molecule, how does the IC50 read?
Answer: The IC50 was 200 nM.

Question: Which IC50 does the source give for `O=C(O)CCc1ccc(S(=O)(=O)CCc2c(CCNS(=O)(=O)Cc3ccccc3F)n(C(c3ccccc3)c3ccccc3)c3ccc(Cl)cc23)cc1` [Example 132, 3-[4-({2-[1-benzhydryl-5-chloro-2-(2-{[(2-fluorobenzyl)sulfonyl]amino}ethyl)-1H-indol-3-yl]ethyl}sulfonyl)phenyl] propanoic acid] here?
Answer: Its IC50 is 200 nM.

Question: How did the IC50 turn out when `O=C(O)CCc1ccc(S(=O)(=O)CCc2c(CCNS(=O)(=O)Cc3ccccc3Cl)n(C(c3ccccc3)c3ccccc3)c3ccc(Cl)cc23)cc1` [Example 133, 3-[4-({2-[1-benzhydryl-5-chloro-2-(2-{[(2-chlorobenzyl)sulfonyl]amino}ethyl)-1H-indol-3-yl]ethyl}sulfonyl)phenyl]propanoic acid] was run?
Answer: The IC50 was 90 nM.
